Like-named read-outs stand apart in the source and are kept apart here. Where a SMILES comes first, the peptide text is derived from it. The star is where a group is joined. Bz = O=C(c1ccccc1)*
Experiments:
[1] = test system: Human Peripheral Blood Mononuclear Cells (PBMC), mature IL-1β; experiment: PBMC cell assay: IL-1β assay with human peripheral blood mononuclear cells; format: cell-based; conditions: LPS-stimulated human PBMC, mature IL-1β in supernatant by ELISA
Method in brief: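 Donor PBMC (suspension at 6×10^6 cells/ml) or adherent-enriched monocytes were stimulated with 5 ng/ml LPS (final) alongside 5–6 compound dilutions bracketing the ICE Ki, at 0.1% DMSO final, for 16–18 hr at 37° C, 5% CO2. Mature IL-1β in supernatants was measured by ELISA; IC50 was calculated relative to LPS-only controls.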

Caspase-1 = molecular target: T1, Caspase-1 (Homo sapiens, UniProt P29466); experiment: Caspase-1 enzyme inhibition (Ki); format: biochemical
T1 sequence (P29466 120-297 limits assumed): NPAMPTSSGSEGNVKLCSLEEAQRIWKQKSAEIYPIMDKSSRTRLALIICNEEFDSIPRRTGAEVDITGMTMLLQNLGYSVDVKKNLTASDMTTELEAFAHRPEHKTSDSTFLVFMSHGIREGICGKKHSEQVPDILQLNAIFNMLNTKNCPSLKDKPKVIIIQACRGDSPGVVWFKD
T1 sequence (P29466 317-404 limits assumed): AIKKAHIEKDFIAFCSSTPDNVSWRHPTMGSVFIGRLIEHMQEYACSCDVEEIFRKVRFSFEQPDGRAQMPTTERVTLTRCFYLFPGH
Method in brief: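 Ki obtained by fitting rate versus inhibitor concentration to the Morrison tight-binding equation for competitive inhibitors, with pNA release read at 405 nm at 37 °C. Substrate Suc-YVAD-pNA (80 μM final) added after 15 min enzyme–inhibitor preincubation in Tris pH 7.5 buffer with DTT and CHAPS.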

[2] = Single pass perfusion in rat: GI wall and liver metabolism, biliary excretion; format: in vitro ADME; conditions: for f (g) Xf (h): GI wall metabolism f(g) x liver metabolism f(h)
Method: Single pass perfusion studies in rat were performed to assess gastrointestinal (GI) wall metabolism (f(g)), liver metabolism (f(h)), and biliary excretion. The method used has been described in Pang, C. S., J. Pharmacol. Exp. Therapeutics, 333, pp. 788-798 (1984).

[3] = substrate Suc-YVAD-pNA 80 μM, 37° C., pH 7.5

Structure (SMILES) | Ki (Caspase-1; [3]) [nM] | Biliary Excretion [2] | f (g) Xf (h) [2] | Ki (Caspase-1) [nM] | IC50 [1] [nM]
CC(C)[C@H](NC(=O)c1cccc2c1-c1ccccc1C2=O)C(=O)N1CCC[C@H]1C(=O)N[C@H](C=O)CC(=O)O [Example 5k] | < 10 | A (category “A” indicates <5%) | B (Category “B” indicates 0.25-0.49) | < 10 | > 2000
CC(C)[C@H](NC(=O)c1cc(Cl)c(O)c(Cl)c1)C(=O)N1CCC[C@H]1C(=O)N[C@H](C=O)CC(=O)O [Example 5m] | < 10 | C (Category “C” indicates >10%) | B (Category “B” indicates 0.25-0.49) | < 10 | < 500
Cc1cc(C(=O)N[C@@H](C)C(=O)N2CCC[C@H]2C(=O)N[C@H](C=O)CC(=O)O)cc(C)c1O [Example 7c] | < 10 |  |  |  | < 500
COCC(=O)N1CCN(C(=O)[C@H](C)NC(=O)c2ccc(N)c(Cl)c2)[C@H](C(=O)N[C@H](C=O)CC(=O)O)C1 [Example 18f] | 10 to 1000 | A (category “A” indicates <5%) | D (Category “D” indicates >0.75) |  | > 2000
CC[C@H](NC(=O)c1cc(Cl)c(O)c(Cl)c1)C(=O)N1CCC[C@H]1C(=O)N[C@H](C=O)CC(=O)O [Example 20m] | < 10 |  |  |  | 500 to 1000
CC(C)[C@H](NC(=O)c1ccccc1)C(=O)N1CC(c2ccccc2)[C@H]1C(=O)N[C@H](C=O)CC(=O)O (some centres unmarked) [Example 24a] | < 10 | A (category “A” indicates <5%) | C (Category “C” indicates 0.5-0.75) |  | 500 to 1000
CC(C)[C@H](NC(=O)c1nccc2ccccc12)C(=O)N1CC(c2ccccc2)[C@H]1C(=O)N[C@H](C=O)CC(=O)O (some centres unmarked) [Example 24c] | < 10 | C (Category “C” indicates >10%) | A (category “A” indicates <0.25) |  | < 500
CC(C)[C@H](NC(=O)c1nccc2ccccc12)C(=O)N1[C@@H](c2ccccc2)CC[C@H]1C(=O)N[C@H](C=O)CC(=O)O [Example 26f] | < 10 | C (Category “C” indicates >10%) | A (category “A” indicates <0.25) |  | < 500
C[C@H](NC(=O)c1ccc(N)c(Cl)c1)C(=O)N1CC(F)(F)C[C@H]1C(=O)N[C@H](C=O)CC(=O)O [Example 27a] | 10 to 1000 | A (category “A” indicates <5%) | C (Category “C” indicates 0.5-0.75) |  | < 500
CC(C)[C@H](NC(=O)c1ccccc1)C(=O)N[C@@H](C)C(=O)N[C@H](C=O)CC(=O)O [Example 29a] (Bz-Val-Ala-Asp-aldehyde) | < 10 |  |  |  | < 500
C[C@H](NC(=O)[C@@H](NC(=O)c1nccc2ccccc12)C(C)(C)C)C(=O)N[C@H](C=O)CC(=O)O [Example 29g] | < 10 | B (Category “B” indicates 5-10%) | B (Category “B” indicates 0.25-0.49) |  | 500 to 1000
COc1ccc(C(=O)NC(C(=O)N2N=C(C(C)(C)C)SC2C(=O)NC(C=O)CC(=O)O)C(C)C)cc1 (centres unmarked) [Example 46b] | < 10 | C (Category “C” indicates >10%) | B (Category “B” indicates 0.25-0.49) |  | > 2000
COc1ccc(C(=O)NC(C(=O)N2CCCC2C(=O)NC(C=O)CC(=O)O)C(C)C)cc1 (centres unmarked) [Example 57, 3-({1-[2-(4-Methoxy-benzoylamino)-3-methyl-butyryl]-pyrrolidine-2-carbonyl}-amino)-4-oxo-butyric acid] | < 10 | B (Category “B” indicates 5-10%) | B (Category “B” indicates 0.25-0.49) |  | 500 to 1000
Cc1cc(C(=O)N[C@H](C(=O)N2CCCC2C(=O)N[C@H](C=O)CC(=O)O)C(C)C)cc(C)c1O (stereo partly drawn) [Example 65, 3-({l-[2-(4-Hydroxy-3,5-dimethyl-benzoyiamino)-3-methyl-butyryl]-pyrrolidine-2-carbonyl}-amino)-4-oxo-butyric acid] | < 10 | C (Category “C” indicates >10%) | B (Category “B” indicates 0.25-0.49) |  | 500 to 1000
CC(=O)Nc1ccc(C(=O)N[C@@H](C)C(=O)N2CCC[C@H]2C(=O)N[C@H](C=O)CC(=O)O)cc1Cl [Example 122f, 3-({1-[2-(4-Acetylamino-3-chloro-benzoylamino)-propionyl]-pyrrolidine-2-carbonyl}-amino)-4-oxo-butyric acid] | < 10 |  |  |  | 500 to 1000
C[C@H](NC(=O)c1cc(Cl)c(O)c(Cl)c1)C(=O)N1CCC[C@H]1C(=O)N[C@H](C=O)CC(=O)O [Example 122k, 3-({1-[2-(3,5-Dichloro-4-hydroxy-benzoylamino)-propionyl]-pyrrolidine-2-carbonyl}-amino)-4-oxo-butyric acid] | < 10 |  |  |  | < 500

Further lines, with some results ahead:

Ki (Caspase-1; [3]) [nM] | Biliary Excretion [2] | f (g) Xf (h) [2] | Ki (Caspase-1) [nM] | Structure (SMILES) | IC50 [1] [nM]
< 10 | C (Category “C” indicates >10%) | A (category “A” indicates <0.25) |  | CC(C)[C@H](NC(=O)c1nccc2ccccc12)C(=O)N1CCC[C@H]1C(=O)N[C@H](C=O)CC(=O)O [Example 5c] | 500 to 1000
< 10 | A (category “A” indicates <5%) | D (Category “D” indicates >0.75) |  | C[C@H](NC(=O)c1nccc2ccccc12)C(=O)N1CCC[C@H]1C(=O)N[C@H](C=O)CC(=O)O [Example 7d] | < 500
10 to 1000 | A (category “A” indicates <5%) | C (Category “C” indicates 0.5-0.75) |  | COc1ccc(C(=O)N[C@@H](C)C(=O)N2CCC[C@H]2C(=O)N[C@H](C=O)CC(=O)O)cc1 [Example 7f] | > 2000
< 10 | C (Category “C” indicates >10%) | B (Category “B” indicates 0.25-0.49) |  | O=C[C@H](CC(=O)O)NC(=O)[C@@H]1CCCN1C(=O)[C@H](Cc1cccnc1)NC(=O)c1nccc2ccccc12 [Example 20f] | 500 to 1000
< 10 | A (category “A” indicates <5%) | B (Category “B” indicates 0.25-0.49) |  | CSC[C@H](NC(=O)c1nccc2ccccc12)C(=O)N1CCC[C@H]1C(=O)N[C@H](C=O)CC(=O)O [Example 20g] | < 500
< 10 |  |  |  | CS(=O)(=O)CC[C@H](NC(=O)c1nccc2ccccc12)C(=O)N1CCC[C@H]1C(=O)N[C@H](C=O)CC(=O)O [Example 20h] | < 500
< 10 | C (Category “C” indicates >10%) | A (category “A” indicates <0.25) |  | CC(C)[C@H](NC(=O)c1nccc2ccccc12)C(=O)N1CC[C@H](C)[C@H]1C(=O)N[C@H](C=O)CC(=O)O [Example 26c] | 500 to 1000
< 10 | B (Category “B” indicates 5-10%) | B (Category “B” indicates 0.25-0.49) |  | CC(C)[C@H](NC(=O)c1nccc2ccccc12)C(=O)N1C2CCCCC2C[C@H]1C(=O)N[C@H](C=O)CC(=O)O (some centres unmarked) [Example 26e] | < 500
